The values that follow are results of earlier work, collected in patent US6884793B2, “Combination preparation for contraception based on natural estrogens” (Jenapharm GmbH & Co. KG, priority 1995, dated 2005).

The structures appear in SMILES notation.

In the data set the test system is human liver Cytochrome P-450.

For `C#C[C@]1(O)CC[C@H]2[C@@H]3CCc4cc(O)ccc4[C@H]3CC[C@@]21C` [Ethinyl estradiol, ethinyl estradiol], the “effect on Cytochrome P-450 system” value is “suicidal blockage of the Cytochrome P-450 system”.
